The results in this text go back to ChEMBL document CHEMBL3044743, “Synthesis and Phytotoxic Activities of N-Substituted Phenyl Isothiazolone Derivatives” (J Pestic Sci, 2003).

SMILES strings stand for the structures.

The first test concerns the target T1, Protoporphyrinogen IX oxidase (Zea mays) (UniProt Q9FYV8).
T1 sequence (whole entry): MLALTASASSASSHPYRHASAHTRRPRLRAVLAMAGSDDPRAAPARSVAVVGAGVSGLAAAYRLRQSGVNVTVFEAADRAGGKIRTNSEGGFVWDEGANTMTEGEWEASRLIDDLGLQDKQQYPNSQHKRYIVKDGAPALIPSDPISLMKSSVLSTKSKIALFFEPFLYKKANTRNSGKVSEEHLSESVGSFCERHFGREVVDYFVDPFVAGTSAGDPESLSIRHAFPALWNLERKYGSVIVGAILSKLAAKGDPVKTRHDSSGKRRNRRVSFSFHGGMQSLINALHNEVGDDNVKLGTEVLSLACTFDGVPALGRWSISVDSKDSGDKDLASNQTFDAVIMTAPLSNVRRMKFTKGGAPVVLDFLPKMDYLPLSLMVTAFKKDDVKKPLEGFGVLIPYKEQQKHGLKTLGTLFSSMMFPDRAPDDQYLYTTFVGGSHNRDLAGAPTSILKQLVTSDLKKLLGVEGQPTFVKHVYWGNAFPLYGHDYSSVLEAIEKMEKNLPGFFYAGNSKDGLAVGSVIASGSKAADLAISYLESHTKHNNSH
Briefly: Inhibition of protoporphyrinogen IX oxidase in Zea mays cv. DK212MF (maize) seedlings assessed as protoporphyrin IX formation at 10 uM after 5 min by spectrophotometry.
Consider `O=c1c2c(sn1-c1ccc(Cl)cc1)CCCC2`, for which the inhibition stood at 11.2%.

The test system of a further test is Scenedesmus acutus. The experiment in a line: Phytotoxicity against Scenedesmus acutus assessed as ethane production level per ml of packed cell volume at 10 uM after 20 hr by gas chromatography. Format: functional.
In the case of `O=c1c2c([s+]([O-])n1-c1cc(OC3CCCC3)c(Cl)cc1F)CCCC2` (stereo not drawn), the Activity was 0 nmol/mL.
On to `CC(C)OC(=O)c1cc(N2C(=O)C3=C(CCCC3)C2=O)ccc1Cl`, for which the Activity is 12 nmol/mL.
On the same count and under the same terms, the figure for `CC(C)OC(=O)c1cc(-n2c(=O)c3c([s+]2[O-])CCCC3)ccc1Cl` (stereo not drawn) is 3 nmol/mL; for `CC(C)OC(=O)c1cc(N2C(=O)C3=C(CCCC3)S2(=O)=O)ccc1Cl` it is 12 nmol/mL.
On the same count and under the same terms, the figure for `O=c1c2c([s+]([O-])n1-c1ccc(Cl)cc1)CCCC2` (stereo not drawn) is 3 nmol/mL.
For the compound `O=C1C2=C(CCCC2)S(=O)(=O)N1c1ccc(Cl)cc1`, the Activity turned out to be 12 nmol/mL.
On to `CC(C)OC(=O)c1cc(-n2sc3c(c2=O)CCCC3)ccc1Cl`, for which the Activity amounted to 3 nmol/mL.
Turning to `O=C1C2=C(CCCC2)C(=O)N1c1cc(OC2CCCC2)c(Cl)cc1F`, the Activity turned out to be 12 nmol/mL.
For the compound `O=c1c2c(sn1-c1cc(OC3CCCC3)c(Cl)cc1F)CCCC2`, the Activity worked out at 0 nmol/mL.
The same measure, in the same setting: the figure for `O=C1C2=C(CCCC2)S(=O)(=O)N1c1cc(OC2CCCC2)c(Cl)cc1F` is 3 nmol/mL; for `O=c1c2c(sn1-c1ccc(Cl)cc1)CCCC2` it is 7 nmol/mL; for `O=C1C2=C(CCCC2)C(=O)N1c1ccc(Cl)cc1` [CHLOROPHTHALIUM] it is 12 nmol/mL.

By inhibition is commonly meant the relative decrease from the control value, in per cent.
